This note sets out measurements from patent EP1724268A1, “COMPOUND HAVING TGF-BETA INHIBITORY ACTIVITY AND PHARMACEUTICAL COMPOSITION CONTAINING SAME” (KIRIN BEER KABUSHIKI KAISHA, priority 2004, dated 2005).

In this assay the test system is TGFβ signal. Briefly: TGFβ signal inhibitory activity, (SBE)4-Luc reporter in A549 cells (Test Examples 1A and 1B). The assay is classed as cell-based, human. The settings on record: Homo sapiens, A549, read-out: TGFβ inhibition rate, %. An outline of the steps: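 Compounds at 3 µM and 10 µM (some 1 µM) were added with 2 ng/ml TGFβ-1 to A549 cells stably expressing an SBE-driven luciferase, then cultured 4 hr. Chemiluminescent luciferase signal gave % inhibition versus TGFβ-alone and no-TGFβ controls.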

Where [1] appears, read: test compound 3 µM, Reference Examples, Table 1B.
[2] abbreviates: test compound 10 µM, Reference Examples, Table 1B.
Setting [3] is: 3 µM, compounds of Reference Examples (Test Example 1B).
Setting [4] is: 10 µM, compounds of Reference Examples (Test Example 1B).
Where [5] appears, read: test compound 3 µM, TGFβ-1 2 ng/ml, 4 hr, Table 1A.
[6] abbreviates: test compound 10 µM, TGFβ-1 2 ng/ml, 4 hr, Table 1A.

Where two headings read alike, the source gives them in different places.

The inhibition is the percentage by which the read-out fell short of the control. Take `COc1cc2nccc(Oc3ccc(C)cc3-c3ccno3)c2cc1OC` [r12]: the inhibition at 3 µM under setting [1] amounted to 21%. The inhibition at 10 µM under setting [2] worked out at 89%.

On to `COc1cc2nccc(Oc3cccnc3Br)c2cc1OC` [r203], for which the inhibition at 3 µM under setting [3] amounted to 19%. Also, under setting [4], the inhibition at 10 µM stood at 52%.

In the case of `COc1cc2nccc(Oc3ccc(SC)nc3-c3cccnc3)c2cc1OC` [r267], the inhibition at 3 µM under setting [3] was 34%. Also, the inhibition at 10 µM under setting [4] was found to be 83%.

With `Cc1cc(Oc2ccnc3cc(-c4ccsc4)ccc23)c(-c2ccccn2)nc1C` [Compound 171, 5,6-Dimethyl-3-(7-thioahen-3-yl-quinolin-4-yloxy)-[2,2']bipyridine], the inhibition at 3 µM under setting [5] was 100%. Further, under setting [6], the inhibition at 10 µM stood at 100%.

As to `COc1cc2c(Oc3cc(C)c(C)nc3-c3ccccn3)ccnc2cc1OCCCO` [Compound r340], under setting [3], the inhibition at 3 µM turned out to be 99%.

Regarding `COc1cc2nccc(Oc3ccc(C)nc3-c3cc(C)no3)c2cc1OC` [r258], the inhibition at 3 µM under setting [3] is 99%. In addition, the inhibition at 10 µM under setting [4] amounted to 100%.

On to `Fc1cc2nccc(Oc3cc4cccnc4nc3-c3ccccc3)c2c(F)c1F` [Compound 102, 2-Phenyl-3-(5,6,7-trifluoro-quinolin-4-yloxy)-[1,8]naphthyridine], for which the inhibition at 3 µM under setting [5] is 45%. For the same molecule, the inhibition at 10 µM under setting [6] came out at 92%.

With `COc1cc2c(Oc3ccc(C)cc3C(=O)c3ccccc3)ccnc2cc1OCCCN1CCC(CO)CC1` [r135], the inhibition at 3 µM under setting [1] was 100%. The inhibition at 10 µM under setting [2] was determined as 100%.

Take `COc1cc2c(Oc3ccc(C)cc3C(=O)c3ccccc3)ccnc2cc1OCCCCCl` [Compound r141]: under setting [1], the inhibition at 3 µM was 55%. Moreover, the inhibition at 10 µM under setting [2] amounted to 89%.

For `Cc1cc2nccc(Oc3cc(C)c(C)nc3-c3ccccn3)c2cc1C` [Compound 170, 3-(6,7-Dimethyl-quinolin-4-yloxy)-5,6-dimethyl-[2,2']bipyridine], the inhibition at 3 µM under setting [5] amounted to 98%. For the same molecule, the inhibition at 10 µM under setting [6] came to 100%.

Regarding `COc1cc2c(Oc3cc4ccccc4nc3C)ccnc2cc1O` [Compound r352, 6-Methoxy-4-(2-methyl-quinolin-3-yloxy)-quinolin-7-ol], under setting [3], the inhibition at 3 µM worked out at 14%. For the same molecule, the inhibition at 10 µM under setting [4] was 68%.

In the case of `CCOC(=O)c1cc(-c2ccc(F)cc2F)ccc1Oc1ccnc2cc(OC)c(OC)cc12` [Compound r89], the inhibition at 3 µM under setting [1] turned out to be 20%. The inhibition at 10 µM under setting [2] is 63%.

For `COc1cc2c(Oc3cc4ccccc4nc3C(C)=O)ccnc2cc1OCCN1CCOCC1` [Compound r391], under setting [3], the inhibition at 3 µM worked out at 99%. For the same molecule, under setting [4], the inhibition at 10 µM stood at 100%.

`Cc1cc(Oc2ccnc3cc(-c4ccc(O)cc4)ccc23)c(-c2ccccn2)nc1C` [Compound 107, 4-[4-(5,6-Dimethyl-[2,2']bipyridinyl-3-yloxy)-quinolin-7-yl]-phenol]: under setting [5], the inhibition at 3 µM stood at 100%. Besides, the inhibition at 10 µM under setting [6] came out at 100%.

Consider `COC(=O)CCCCCCC(=O)c1cc(C)ccc1Oc1ccnc2cc(OC)c(OC)cc12` [r187], for which the inhibition at 3 µM under setting [3] came to 35%. The inhibition at 10 µM under setting [4] is 91%.

Consider `COc1cc2nccc(Oc3cc4cccnc4nc3-c3ccccc3)c2cc1OCCO` [Compound 125, 2-[7-Methoxy-4-(2-phenyl-[1,8]naphthyridin-3-yloxy)-quinolin-6-yloxy]-ethanol], for which the inhibition at 3 µM under setting [5] amounted to 99%. The inhibition at 10 µM under setting [6] worked out at 100%.

Consider `COc1cc2c(Oc3cc4ccccc4nc3C(C)=O)ccnc2cc1OCC(CO)CO` [Compound r396], for which, under setting [3], the inhibition at 3 µM came to 96%.

Take `COc1cc2nccc(Oc3ccc4ccccc4c3C=O)c2cc1OC` [Compound r27]: the inhibition at 3 µM under setting [1] was determined as 0%. In addition, the inhibition at 10 µM under setting [2] was 93%.

`Cc1cc(Oc2ncnc3sc(C)c(C)c23)c(-c2ccccn2)nc1C` [Compound 35, 3-(5,6-Dimethyl-thieno[2,3-d]pyrimidin-4-yloxy)-5,6-dimethyl-[2,2']bipyridine]: under setting [5], the inhibition at 3 µM worked out at 95%. Moreover, the inhibition at 10 µM under setting [6] is 100%.

Regarding `COc1ccc2nccc(Oc3cc4cccnc4nc3-c3ccccc3)c2c1` [Compound 55, 3-(6-Methoxy-quinolin-4-yloxy)-2-phenyl-[1,8]naphthyridine], the inhibition at 3 µM under setting [5] was 94%. For the same molecule, under setting [6], the inhibition at 10 µM was 100%.

In the case of `COc1cc2c(Oc3cc4ccccc4nc3C)ccnc2cc1OCCCN1CCCCC1` [Compound r378], the inhibition at 3 µM under setting [3] was 100%. The inhibition at 10 µM under setting [4] was 100%.

`COc1cc2c(Oc3cc4ccccc4nc3C(C)=O)ccnc2cc1O` [Compound r390]: under setting [3], the inhibition at 3 µM was 16%. In addition, under setting [4], the inhibition at 10 µM came out at 64%.

Consider `COc1cc2nccc(Oc3cc(C)c(C)cc3C(C)=O)c2cc1OC` [Compound r38], for which the inhibition at 3 µM under setting [1] was found to be 98%. Moreover, under setting [2], the inhibition at 10 µM turned out to be 100%.

Take `COc1cc2nccc(Oc3ccc(C)nc3-c3ccc(Cl)cc3)c2cc1OC` [Compound r252]: the inhibition at 3 µM under setting [3] was 16%. For the same molecule, the inhibition at 10 µM under setting [4] was 78%.

`COc1cc2nccc(Oc3ccc(C)nc3-c3cccc(Cl)c3)c2cc1OC` [Compound r241]: the inhibition at 3 µM under setting [3] is 96%. In addition, the inhibition at 10 µM under setting [4] was determined as 100%.

Regarding `c1ccc(-c2nc3ncccc3cc2Oc2ncnc3ccsc23)cc1` [Compound 75, 2-Phenyl-3-(thieno[3,2-d]pyrimidin-4-yloxy)-[1,8]naphthyridine], the inhibition at 3 µM under setting [5] was found to be 84%. In addition, under setting [6], the inhibition at 10 µM was found to be 98%.

Consider `CCN(CC)CCCOc1cc2nccc(Oc3ccc(C)cc3C(=O)c3ccccc3)c2cc1OC` [Compound r134], for which the inhibition at 3 µM under setting [1] was 100%. Besides, the inhibition at 10 µM under setting [2] is 100%.

For `COc1cc2nccc(Oc3cc(C)c(Cl)cc3C(=O)c3ccccc3)c2cc1OC` [r75], under setting [1], the inhibition at 3 µM worked out at 97%. Moreover, the inhibition at 10 µM under setting [2] amounted to 100%.

For the molecule `COc1cc2c(Oc3cc(C)c(C)cc3C(C)=O)ccnc2cc1OCCN1CCOCC1` [Compound r316], the inhibition at 3 µM under setting [3] turned out to be 99%. Further, the inhibition at 10 µM under setting [4] was 100%.

Regarding `COc1cc2nccc(Oc3ccc(C)cc3C(=O)N3CCCCC3)c2cc1OC` [r109], the inhibition at 3 µM under setting [1] is 5%. Moreover, the inhibition at 10 µM under setting [2] was determined as 66%.

For the molecule `CCc1ccc(Oc2ccnc3cc(OC)c(F)cc23)c(-c2ccccn2)n1` [Compound 162, 6-Ethyl-3-(6-fluoro-7-methoxy-quinolin-4-yloxy)-[2,2']bipyridine], the inhibition at 3 µM under setting [5] was 100%. Moreover, the inhibition at 10 µM under setting [6] is 100%.

On to `COc1cc2nccc(Oc3cncc(Cl)c3)c2cc1OC` [r208], for which, under setting [3], the inhibition at 3 µM was 18%. For the same molecule, under setting [4], the inhibition at 10 µM turned out to be 73%.

Consider `COc1ccc(Oc2ccnc3cc(OC)c(OC)cc23)c(C(O)Cc2ccccn2)c1` (stereo not shown) [r166], for which the inhibition at 3 µM under setting [3] turned out to be 24%. In addition, the inhibition at 10 µM under setting [4] was found to be 67%.

In the case of `COc1cc2nccc(Oc3c(C(C)=O)ccc4ccccc34)c2cc1OC` [Compound r41], the inhibition at 3 µM under setting [1] turned out to be 57%. The inhibition at 10 µM under setting [2] is 97%.

`COc1cc2c(Oc3ccc(C)cc3C(=O)c3ccccc3)ccnc2cc1OCC(O)Cn1ccnc1` (stereo not shown) [r160]: under setting [1], the inhibition at 3 µM came to 98%. Under setting [2], the inhibition at 10 µM was 100%.

On to `Clc1ccc2ncnc(Oc3cc4cccnc4nc3-c3ccccc3)c2c1` [Compound 68, 6-Chloro-4-(2-phenyl-[1,8]naphthyridin-3-yloxy)-quinazoline], for which, under setting [5], the inhibition at 3 µM was determined as 43%. Further, the inhibition at 10 µM under setting [6] turned out to be 91%.

On to `COc1ccc2nccc(Oc3cc4cccnc4nc3-c3ccccc3)c2n1` [Compound 128, 2-Methoxy-8-(2-phenyl-[1,8]naphthyridin-3-yloxy)-[1,5]naphthyridine], for which the inhibition at 3 µM under setting [5] worked out at 93%. Further, the inhibition at 10 µM under setting [6] turned out to be 100%.

Take `COc1ccc(-c2nc(C)ccc2Oc2ccnc3cc(OC)c(OC)cc23)cc1` [Compound r249]: the inhibition at 3 µM under setting [3] stood at 52%. Besides, the inhibition at 10 µM under setting [4] came to 98%.

For `COc1cc2c(Oc3cc(C)c(C)nc3-c3ccccn3)ccnc2cc1OCc1ccccc1` [Compound r337], the inhibition at 3 µM under setting [3] is 98%.

Consider `COc1cc2c(Oc3cc4ccccc4nc3C)ccnc2cc1OCCCN1CCOCC1` [Compound r379], for which the inhibition at 3 µM under setting [3] amounted to 100%. The inhibition at 10 µM under setting [4] was found to be 100%.

With `COc1cc2nccc(Oc3cc4cc(F)ccc4nc3-c3ccccc3)c2cc1OC` [r292], the inhibition at 3 µM under setting [3] was 86%. For the same molecule, under setting [4], the inhibition at 10 µM was found to be 100%.

`COc1cc2nccc(Oc3cc4cccnc4nc3-c3csc4ccccc34)c2cc1OC` [Compound 91, 2-Benzo[b]thiophen-3-yl-3-(6,7-dimethoxy-quinolin-4-yloxy)-[1,8]naphthyridine]: the inhibition at 3 µM under setting [5] is 97%. Moreover, the inhibition at 10 µM under setting [6] amounted to 100%.

Consider `CCC(=O)c1cc(I)ccc1Oc1ccnc2cc(OC)c(OC)cc12` [Compound r47], for which, under setting [1], the inhibition at 3 µM is 45%. Under setting [2], the inhibition at 10 µM turned out to be 98%.

Consider `CCOC(=O)c1cc(F)ccc1Oc1ccnc2cc(OC)c(OC)cc12` [Compound r83], for which the inhibition at 3 µM under setting [1] is 41%. Further, the inhibition at 10 µM under setting [2] worked out at 81%.

Regarding `COc1cc2c(Oc3cc4cccnc4nc3C)ccnc2cc1OCCN1CCCCC1` [r440], the inhibition at 3 µM under setting [3] came to 100%. Further, the inhibition at 10 µM under setting [4] was 100%.

On to `Cc1ccc(Oc2ccnc3ccc(OCCCN4CCN(CCO)CC4)cc23)c(-c2ncccn2)n1` [Compound 221, 2-(4-{3-[4-(6-Methyl-2-pyrimidin-2-yl-pyridin-3-yloxy)-quinolin-6-yloxy]-propyl}-piperazin-1-yl)-ethano I], for which the inhibition at 3 µM under setting [5] is 39%. Also, under setting [6], the inhibition at 10 µM is 79%.

Consider `COc1cc2nccc(Oc3ccc(C)nc3C(=O)c3cccc(C)n3)c2cc1OC` [r221], for which, under setting [3], the inhibition at 3 µM amounted to 71%. In addition, the inhibition at 10 µM under setting [4] is 98%.
